According to PubChem BioAssay (NCI):
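Values below derive from 48-hour exposures of cells grown in 96-well plates, with endpoints linearly interpolated between the two concentrations bracketing the appropriate inhibition level. GI50: concentration for 50% inhibition of growth. TGI marks complete inhibition of growth.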

Columns and labels:
Test in all cases: NCI tumour cell line growth inhibition, 48 h
UACC-257 melanoma = system: UACC-257 melanoma
RXF 393 renal = system: RXF 393 renal
HS 578T breast = system: HS 578T breast
U251 CNS = system: U251 CNS
ACHN renal = system: ACHN renal
786-0 renal = system: 786-0 renal
UO-31 renal = system: UO-31 renal
NCI-H226 lung = system: NCI-H226 lung
SN12C renal = system: SN12C renal
HCC-2998 colon = system: HCC-2998 colon
COLO 205 colon = system: COLO 205 colon
NCI-H522 lung = system: NCI-H522 lung
UACC-62 melanoma = system: UACC-62 melanoma
BT-549 breast = system: BT-549 breast
HT29 colon = system: HT29 colon
EKVX NSCLC = system: EKVX NSCLC
SK-OV-3 ovarian = system: SK-OV-3 ovarian
IGROV1 ovarian = system: IGROV1 ovarian
NCI-H460 lung = system: NCI-H460 lung
M14 melanoma = system: M14 melanoma
A549 NSCLC = system: A549 NSCLC
OVCAR-3 ovarian = system: OVCAR-3 ovarian
CAKI-1 renal = system: CAKI-1 renal
A498 renal = system: A498 renal
HOP-92 NSCLC = system: HOP-92 NSCLC
HL-60(TB) leukemia = system: HL-60(TB) leukemia
SF-295 CNS = system: SF-295 CNS
PC-3 prostate = system: PC-3 prostate
CCRF-CEM leukemia = system: CCRF-CEM leukemia
SK-MEL-5 melanoma = system: SK-MEL-5 melanoma
MDA-MB-435 = system: MDA-MB-435
MALME-3M melanoma = system: MALME-3M melanoma
SW-620 colon = system: SW-620 colon
MOLT-4 leukemia = system: MOLT-4 leukemia
SK-MEL-2 melanoma = system: SK-MEL-2 melanoma
OVCAR-8 ovarian = system: OVCAR-8 ovarian
MDA-MB-468 breast = system: MDA-MB-468 breast
TK-10 renal = system: TK-10 renal
HOP-62 NSCLC = system: HOP-62 NSCLC
NCI/ADR-RES ovarian = system: NCI/ADR-RES ovarian
HCT-116 colon = system: HCT-116 colon
DU-145 prostate = system: DU-145 prostate
RPMI-8226 leukemia = system: RPMI-8226 leukemia
KM12 colon = system: KM12 colon
MCF7 breast = system: MCF7 breast
SR leukemia = system: SR leukemia
SNB-75 CNS = system: SNB-75 CNS
OVCAR-4 ovarian = system: OVCAR-4 ovarian
K-562 leukemia = system: K-562 leukemia
NCI-H23 lung = system: NCI-H23 lung
SF-268 CNS = system: SF-268 CNS
OVCAR-5 ovarian = system: OVCAR-5 ovarian
HCT-15 colon = system: HCT-15 colon
LOX IMVI melanoma = system: LOX IMVI melanoma
MDA-MB-231 breast = system: MDA-MB-231 breast
SK-MEL-28 melanoma = system: SK-MEL-28 melanoma
SF-539 CNS = system: SF-539 CNS
SNB-19 CNS = system: SNB-19 CNS

Q: Which GI50 (UACC-257 melanoma) does the source give for `O=C(CNc1nc(-c2ccccc2)cs1)Nc1ccc(Br)cc1` here?
A: 1410 nM

Q: What about the TGI (UACC-257 melanoma) of the same compound?
A: 3140 nM

Q: And the GI50 (RXF 393 renal)?
A: 1150 nM

Q: What about the TGI (RXF 393 renal) of the same compound?
A: 2540 nM

Q: And the GI50 (HS 578T breast)?
A: 2140 nM

Q: And the TGI (HS 578T breast)?
A: 22300 nM

Q: And the GI50 (U251 CNS)?
A: 525 nM

Q: What about the TGI (U251 CNS) of the same compound?
A: 1340 nM

Q: And the GI50 (ACHN renal)?
A: 844 nM

Q: And the TGI (ACHN renal)?
A: 2160 nM

Q: And the GI50 (786-0 renal)?
A: 798 nM

Q: And the TGI (786-0 renal)?
A: 2100 nM

Q: What about the GI50 (UO-31 renal) of the same compound?
A: 1050 nM

Q: What about the TGI (UO-31 renal) of the same compound?
A: 2330 nM

Q: What about the GI50 (NCI-H226 lung) of the same compound?
A: 1120 nM

Q: What about the TGI (NCI-H226 lung) of the same compound?
A: 3510 nM

Q: What about the GI50 (SN12C renal) of the same compound?
A: 649 nM

Q: What about the TGI (SN12C renal) of the same compound?
A: 1990 nM

Q: What about the GI50 (HCC-2998 colon) of the same compound?
A: 1450 nM

Q: And the TGI (HCC-2998 colon)?
A: 2770 nM

Q: What about the GI50 (COLO 205 colon) of the same compound?
A: 1300 nM

Q: And the TGI (COLO 205 colon)?
A: 2840 nM

Q: What about the GI50 (NCI-H522 lung) of the same compound?
A: 168 nM

Q: And the TGI (NCI-H522 lung)?
A: 339 nM

Q: And the GI50 (UACC-62 melanoma)?
A: 903 nM

Q: What about the TGI (UACC-62 melanoma) of the same compound?
A: 2320 nM

Q: What about the GI50 (BT-549 breast) of the same compound?
A: 498 nM

Q: And the TGI (BT-549 breast)?
A: 1680 nM

Q: And the GI50 (HT29 colon)?
A: 752 nM

Q: And the TGI (HT29 colon)?
A: 2160 nM

Q: And the GI50 (EKVX NSCLC)?
A: 1420 nM

Q: And the TGI (EKVX NSCLC)?
A: 3030 nM

Q: And the GI50 (SK-OV-3 ovarian)?
A: 1940 nM

Q: What about the TGI (SK-OV-3 ovarian) of the same compound?
A: 4750 nM

Q: And the GI50 (IGROV1 ovarian)?
A: 876 nM

Q: And the TGI (IGROV1 ovarian)?
A: 2430 nM

Q: And the GI50 (NCI-H460 lung)?
A: 1430 nM

Q: What about the TGI (NCI-H460 lung) of the same compound?
A: 3420 nM

Q: And the GI50 (M14 melanoma)?
A: 875 nM

Q: And the TGI (M14 melanoma)?
A: 2490 nM

Q: What about the GI50 (A549 NSCLC) of the same compound?
A: 1660 nM

Q: And the TGI (A549 NSCLC)?
A: 3560 nM

Q: And the GI50 (OVCAR-3 ovarian)?
A: 747 nM

Q: And the TGI (OVCAR-3 ovarian)?
A: 1930 nM

Q: And the GI50 (CAKI-1 renal)?
A: 917 nM

Q: What about the TGI (CAKI-1 renal) of the same compound?
A: 2300 nM

Q: What about the GI50 (A498 renal) of the same compound?
A: 3650 nM

Q: What about the TGI (A498 renal) of the same compound?
A: 7990 nM

Q: What about the GI50 (HOP-92 NSCLC) of the same compound?
A: 1400 nM

Q: What about the TGI (HOP-92 NSCLC) of the same compound?
A: 3100 nM

Q: And the GI50 (HL-60(TB) leukemia)?
A: 1320 nM

Q: What about the TGI (HL-60(TB) leukemia) of the same compound?
A: 49200 nM

Q: And the GI50 (SF-295 CNS)?
A: 1480 nM

Q: What about the TGI (SF-295 CNS) of the same compound?
A: 4100 nM

Q: What about the GI50 (PC-3 prostate) of the same compound?
A: 1240 nM

Q: What about the TGI (PC-3 prostate) of the same compound?
A: 3620 nM

Q: And the GI50 (CCRF-CEM leukemia)?
A: 245 nM

Q: And the TGI (CCRF-CEM leukemia)?
A: > 100000 nM

Q: What about the GI50 (SK-MEL-5 melanoma) of the same compound?
A: 707 nM

Q: And the TGI (SK-MEL-5 melanoma)?
A: 1870 nM

Q: And the GI50 (MDA-MB-435)?
A: 1020 nM

Q: What about the TGI (MDA-MB-435) of the same compound?
A: 2790 nM

Q: And the GI50 (MALME-3M melanoma)?
A: 739 nM

Q: What about the TGI (MALME-3M melanoma) of the same compound?
A: 2090 nM

Q: What about the GI50 (SW-620 colon) of the same compound?
A: 759 nM

Q: And the TGI (SW-620 colon)?
A: 2300 nM

Q: What about the GI50 (MOLT-4 leukemia) of the same compound?
A: 424 nM

Q: What about the GI50 (SK-MEL-2 melanoma) of the same compound?
A: 1320 nM

Q: And the TGI (SK-MEL-2 melanoma)?
A: 2700 nM

Q: What about the GI50 (OVCAR-8 ovarian) of the same compound?
A: 1660 nM

Q: What about the TGI (OVCAR-8 ovarian) of the same compound?
A: 6070 nM

Q: What about the GI50 (MDA-MB-468 breast) of the same compound?
A: 532 nM

Q: What about the TGI (MDA-MB-468 breast) of the same compound?
A: 1180 nM

Q: And the GI50 (TK-10 renal)?
A: 1840 nM

Q: What about the TGI (TK-10 renal) of the same compound?
A: 3270 nM

Q: What about the GI50 (HOP-62 NSCLC) of the same compound?
A: 1600 nM

Q: What about the TGI (HOP-62 NSCLC) of the same compound?
A: 3170 nM

Q: And the GI50 (NCI/ADR-RES ovarian)?
A: 557 nM

Q: What about the TGI (NCI/ADR-RES ovarian) of the same compound?
A: 3680 nM

Q: And the GI50 (HCT-116 colon)?
A: 507 nM

Q: And the TGI (HCT-116 colon)?
A: 1660 nM

Q: What about the GI50 (DU-145 prostate) of the same compound?
A: 1600 nM

Q: And the TGI (DU-145 prostate)?
A: 3050 nM

Q: And the GI50 (RPMI-8226 leukemia)?
A: 396 nM

Q: And the TGI (RPMI-8226 leukemia)?
A: 1890 nM

Q: What about the GI50 (KM12 colon) of the same compound?
A: 1790 nM

Q: What about the TGI (KM12 colon) of the same compound?
A: 5350 nM

Q: And the GI50 (MCF7 breast)?
A: 625 nM

Q: What about the TGI (MCF7 breast) of the same compound?
A: 1940 nM

Q: And the GI50 (SR leukemia)?
A: 470 nM

Q: And the TGI (SR leukemia)?
A: > 100000 nM

Q: What about the GI50 (SNB-75 CNS) of the same compound?
A: 1130 nM

Q: What about the TGI (SNB-75 CNS) of the same compound?
A: 5940 nM

Q: And the GI50 (OVCAR-4 ovarian)?
A: 1330 nM

Q: What about the TGI (OVCAR-4 ovarian) of the same compound?
A: 2980 nM

Q: And the GI50 (K-562 leukemia)?
A: 309 nM

Q: And the TGI (K-562 leukemia)?
A: > 100000 nM

Q: And the GI50 (NCI-H23 lung)?
A: 646 nM

Q: And the TGI (NCI-H23 lung)?
A: 1890 nM

Q: What about the GI50 (SF-268 CNS) of the same compound?
A: 1720 nM

Q: What about the TGI (SF-268 CNS) of the same compound?
A: 7070 nM

Q: What about the GI50 (OVCAR-5 ovarian) of the same compound?
A: 1610 nM

Q: What about the TGI (OVCAR-5 ovarian) of the same compound?
A: 3020 nM

Q: And the GI50 (HCT-15 colon)?
A: 469 nM

Q: And the TGI (HCT-15 colon)?
A: 1160 nM

Q: What about the GI50 (LOX IMVI melanoma) of the same compound?
A: 296 nM

Q: And the TGI (LOX IMVI melanoma)?
A: 1290 nM

Q: And the GI50 (MDA-MB-231 breast)?
A: 655 nM

Q: What about the TGI (MDA-MB-231 breast) of the same compound?
A: 1970 nM

Q: What about the GI50 (SK-MEL-28 melanoma) of the same compound?
A: 1580 nM

Q: And the TGI (SK-MEL-28 melanoma)?
A: 2970 nM

Q: What about the GI50 (SF-539 CNS) of the same compound?
A: 779 nM

Q: What about the TGI (SF-539 CNS) of the same compound?
A: 2020 nM

Q: What about the GI50 (SNB-19 CNS) of the same compound?
A: 1480 nM

Q: What about the TGI (SNB-19 CNS) of the same compound?
A: 3080 nM
